Where two headings read alike, the source gives them in different places.
Columns and labels:
[1] = cited from earlier work; for refreshing effect: prior art
[2] = organoleptic evaluation of the compounds: refreshing effect, bitterness, odour; type: in vivo; conditions: sensation of freshness, intensity in words
[3] = hydrophilic nature of the compound; type: physicochemical
[4] = prior art; cited from earlier work
[5] = refreshing effect in a mouthwash flavouring composition; type: in vivo; conditions: approximately 0.2 g per litre of prepared mouthwash
Source text: Approximately 0.2 g of (−)-(1R,3R,4S)-3-hydroxy-p-menthane-3-methanol is used per litre of prepared mouthwash.

[6] = refreshing effect in boiled sweets; type: in vivo; conditions: 0.2 g per kilogramme of final product
Protocol: A solution of saccharose (350 g) in water (110 g) is prepared which is boiled at 107° C. 150 g of glucose syrup is added and boiled at 148° C. The flavouring, citric acid and colouring agent are added at a temperature of approximately 120°, and 0.2 g of (−)-(1R,3R,4S)-3-hydroxy-p-menthane-3-methanol is added per kilogramme of final product.

[7] = refreshing effect in a tobacco flavouring composition; type: in vivo; conditions: approximately 0.05 g per kilogram of tobacco
Source text: Approximately 0.05 g of (−)-(1R,3R,4S)-3-hydroxy-p-menthane-3-[…] is used per kilogram of tobacco.

melting point	SMILES	refreshing effect [2]	also measured
–	CC1=C(N2CCCC2)C(=O)OC1 [4-methyl-3-(1-pyrrolidinyl)-2[5H]furanone]	–	refreshing effect [1]: very intense refreshing effect
–	CC(C)[C@@H]1CC[C@@H](C)C[C@]1(O)C(O)CO (stereo partly drawn) [compound 3, (1R,3R,4S)-3-hydroxy-p-menthane-3-(ethane-1,2-diol)]	intense	hydrophilic nature [3]: hydrophilic
–	CC(C)[C@@H]1CC[C@@H](C)C[C@H]1O [l-menthol]	–	burning sensation ([1]; when used at a high concentration): can cause a burning sensation; volatility [4]: too high volatility
–	CC(O)C[C@]1(O)C[C@H](C)CC[C@H]1C(C)C (some centres unmarked) [compound 5]	reduced intensity	–
–	CC(C)[C@@H]1CC[C@@H](C)C[C@@]1(O)C(C)CO (some centres unmarked) [compound 4]	reduced intensity	–
–	CC(C)[C@@H]1CC[C@@H](C)C[C@]1(CO)OCCO [compound 11]	not endowed with a particularly intense refreshing effect	–
80 to 82 °C	CC(C)[C@@H]1CC[C@@H](C)C[C@]1(O)CO [2a, (−)-(1R,3R,4S)3-hydroxy-p-menthane-3-methanol]	–	refreshing effect [5]: A refreshing effect is obtained; refreshing effect [6]: A very distinct refreshing effect is obtained
80 to 82 °C	CC(C)[C@@H]1CC[C@@H](C)C[C@@]1(O)CCO [1a, (−)-(1R,3R,4S)-3-hydroxy-p-menthane-3-ethanol]	–	refreshing effect [7]: A refreshing effect is obtained
48 to 50 °C	CC(C)[C@@H]1CC[C@@H](C)C[C@@]1(O)CO [2b, (−)-(1R,3S,4S)-3-hydroxy-p-menthane-3-methanol]	–	–
–	CNC(=O)C(C)(C(C)C)C(C)C [2-isopropyl-N,2,3-trimethylbutyramide]	–	refreshing effect [1]: very active
84 to 86 °C	CC(C)[C@@H]1CC[C@@H](C)C[C@]1(O)CCO [1b, (−)-(1R,3S,4S)-3-hydroxy-p-menthane-3-ethanol]	–	–
–	CC(C)[C@@H]1CC[C@@H](C)C[C@@]1(O)CC(C)(C)O [compound 6]	reduced intensity	–
